Reference: ChEMBL document CHEMBL1201862, “PubChem BioAssay data set” (2004)
The source made the active and inactive calls.

Experiments:
[1] = Luminescence Cell-Based Dose Response HTS to Identify Activators of Luciferase Translation or Activity in H4 […] Cells. [Related pubchem assays: 1829 (Project Summary), 1814 (Primary HTS)]; assay type: functional
Cytochrome P450 2C9 = Cytochrome P450 2C9 (Homo sapiens, UniProt P11712)
[2] = target: T1, Heat shock factor protein 1 (Mus musculus, UniProt P38532); assay: decrease of HSF1-responsive luciferase luminescence – cell-based, NIH3T3, dose retest, confirmation (AID 2382); assay type: functional;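 further: NIH3T3 fibroblasts with HSF1-driven luciferase reporter stressed by proteasome inhibitor MG132; luminescence from HSF1-driven luciferase expression after 8 hours of MG132 stress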
T1 sequence (P38532 whole entry): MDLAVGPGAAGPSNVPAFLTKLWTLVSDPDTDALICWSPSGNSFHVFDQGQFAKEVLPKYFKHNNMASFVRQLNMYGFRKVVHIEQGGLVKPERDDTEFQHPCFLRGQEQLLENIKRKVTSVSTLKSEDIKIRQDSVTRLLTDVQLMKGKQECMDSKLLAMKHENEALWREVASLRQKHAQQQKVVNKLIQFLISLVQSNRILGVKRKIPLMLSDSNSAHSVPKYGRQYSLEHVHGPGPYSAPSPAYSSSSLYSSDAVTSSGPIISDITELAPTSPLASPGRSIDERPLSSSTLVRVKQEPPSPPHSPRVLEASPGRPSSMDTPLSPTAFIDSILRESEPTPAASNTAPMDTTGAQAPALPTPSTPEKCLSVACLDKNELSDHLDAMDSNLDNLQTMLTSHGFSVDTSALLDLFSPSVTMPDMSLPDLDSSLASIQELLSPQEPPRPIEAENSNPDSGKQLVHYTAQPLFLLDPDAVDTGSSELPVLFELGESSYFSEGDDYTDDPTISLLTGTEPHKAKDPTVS

Paired box protein Pax-8 = Paired box protein Pax-8 (Homo sapiens, UniProt Q06710); assay: PAX8 transcriptional activity inhibition in RMG-I – RMG-I cells, luciferase, cherry-pick, dose response (AID 687027); assay type: functional, cell-based;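 further: luciferase reporter driven by Pax8 target thyroperoxidase promoter measured by SteadyGlo luminescence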
H4 = assay: Luminescence Cell-Based Dose Response HTS to Identify Activators of 5'UTR Stem-Loop Driven Prion Protein mRNA Translation in H4 Neuroglioblastoma Cells. [Related pubchem assays: 1829 (Project Summary), 1814 (Primary HTS)]; assay type: functional; conditions: Homo sapiens
[3] = viability of uninfected HEp-2 cells – cell-based, HTS, cytotoxicity control for RSV inhibitor project, dose response (AID 2410); assay type: functional; conditions: human respiratory syncytial virus
cells = assay type: functional
Cytochrome P450 2D6 = Cytochrome P450 2D6 (Homo sapiens, UniProt P10635);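 further: CYP2D6 member of a cytochrome P450 panel assay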
Cytochrome P450 2C19 = Cytochrome P450 2C19 (Homo sapiens, UniProt P33261); assay: Cytochrome panel assay with activity outcomes. Panel member name: p450-cyp2c19 Compounds with AC50 equal or less than 10 uM are considered active; assay type: functional
[4] = NIH-3T3 fibroblast cytotoxicity, dose response, cytotoxicity control, cell-based, fluorescence, Alamar Blue, secondary assay (AID 2327); assay type: functional;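 further: NIH-3T3 mouse fibroblasts cultured with fluconazole at 8 µg/mL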
[5] = luciferase reporter signal suppression in cells – H4 neuroglioma cells, luminescence, dose response (AID 1990); assay type: functional, cell-based
[6] = Luminescence Cell-Based Dose Response HTS to Identify Inhibitors of 5'UTR Stem-Loop Driven Prion Protein mRNA Translation in H4 Neuroglioblastoma Cells. [Related pubchem assays: 1827 (Project Summary), 1813 (Primary HTS)]; assay type: functional
[7] = alpha-synuclein stem-loop luciferase translation blockers – H4 neuroglioma cells, luminescence, confirmation (AID 1988); assay type: functional, cell-based
[8] = viability of PTEN-deleted HCT116 cells – cell-based, HCT116 PTEN knockout, dose response (AID 1047); assay type: functional;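 further: HCT116 colon tumor cells with PTEN knocked out; cells exposed to compound for 60 hours before readout; potency for loss of cell viability measured by luminescence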
[9] = viability of HCT116 lacking mutant beta-catenin – cell-based, human colon tumor, dose response (AID 1045); assay type: functional;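 further: HCT116 colon tumor cells with beta catenin knocked out; cells exposed to compound for 60 hours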
[10] = Trypanosoma cruzi growth suppression in host cells – NIH3T3 host cells, beta-gal luminescence, confirmation (AID 2044); assay type: functional, cell-based;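 further: intracellular parasites grown in NIH/3T3 mouse fibroblasts as host cells; luminescent beta-galactosidase reporter signal from transgenic T. cruzi replicating inside host cells; inhibitors lower the luminescence signal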
[11] = NIH3T3 cell viability loss – ATP luminescence, mouse fibroblasts, counter-screen, dose response (AID 2010); assay type: functional, cell-based;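 further: cells exposed to compound for about 90 hours before reading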
[12] = target: T2, Corticotropin-releasing factor receptor 2/Corticotropin-releasing factor-binding protein (Homo sapiens, UniProt P24387+Q13324); assay: Dose Response confirmation of uHTS hits for small molecule antagonists of the CRF-binding protein and CRF-R2 receptor complex.; assay type: functional; conditions: read-out: IC50_Mean
T2 sequence (Q13324 whole entry): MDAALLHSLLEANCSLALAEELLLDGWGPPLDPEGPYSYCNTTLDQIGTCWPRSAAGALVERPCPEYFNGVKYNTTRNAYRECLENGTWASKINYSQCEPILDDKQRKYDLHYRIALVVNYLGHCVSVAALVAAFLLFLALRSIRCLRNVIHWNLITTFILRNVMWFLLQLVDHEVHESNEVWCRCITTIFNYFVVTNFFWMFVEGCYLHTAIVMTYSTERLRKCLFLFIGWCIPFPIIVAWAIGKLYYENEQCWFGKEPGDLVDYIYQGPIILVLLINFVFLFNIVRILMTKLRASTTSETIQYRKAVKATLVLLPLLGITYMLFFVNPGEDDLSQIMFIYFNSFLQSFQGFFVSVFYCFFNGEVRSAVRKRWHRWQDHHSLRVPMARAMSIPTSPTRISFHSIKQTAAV
T2 sequence (P24387 whole entry): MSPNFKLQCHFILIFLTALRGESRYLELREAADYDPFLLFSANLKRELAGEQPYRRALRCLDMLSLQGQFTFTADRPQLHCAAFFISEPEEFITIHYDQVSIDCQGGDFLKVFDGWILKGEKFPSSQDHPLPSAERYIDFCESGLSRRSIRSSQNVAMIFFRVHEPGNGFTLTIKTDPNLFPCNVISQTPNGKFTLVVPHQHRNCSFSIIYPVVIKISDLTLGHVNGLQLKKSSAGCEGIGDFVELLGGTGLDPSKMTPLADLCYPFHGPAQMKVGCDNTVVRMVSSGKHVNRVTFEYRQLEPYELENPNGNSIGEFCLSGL

[13] = target: T2, Corticotropin-releasing factor receptor 2/Corticotropin-releasing factor-binding protein; assay: activators of CRF receptor 2 with binding protein – uHTS hits, confirmation (AID 602473); assay type: functional; conditions: read-out: EC50_Mean

Sequence of Cytochrome P450 2C19 (P33261 whole entry): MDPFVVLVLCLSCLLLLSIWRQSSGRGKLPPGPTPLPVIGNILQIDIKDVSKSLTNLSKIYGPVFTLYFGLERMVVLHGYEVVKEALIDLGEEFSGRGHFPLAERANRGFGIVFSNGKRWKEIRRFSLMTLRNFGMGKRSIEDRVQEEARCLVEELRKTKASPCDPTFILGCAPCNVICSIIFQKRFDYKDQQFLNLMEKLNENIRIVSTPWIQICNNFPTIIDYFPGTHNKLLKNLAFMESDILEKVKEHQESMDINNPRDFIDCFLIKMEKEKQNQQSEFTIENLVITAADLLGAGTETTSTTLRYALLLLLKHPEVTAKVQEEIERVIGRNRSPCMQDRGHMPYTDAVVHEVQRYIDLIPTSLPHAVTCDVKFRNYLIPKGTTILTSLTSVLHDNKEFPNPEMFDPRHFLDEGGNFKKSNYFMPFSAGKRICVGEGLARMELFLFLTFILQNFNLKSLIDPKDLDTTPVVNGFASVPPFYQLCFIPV
Sequence of Paired box protein Pax-8 (Q06710 whole entry): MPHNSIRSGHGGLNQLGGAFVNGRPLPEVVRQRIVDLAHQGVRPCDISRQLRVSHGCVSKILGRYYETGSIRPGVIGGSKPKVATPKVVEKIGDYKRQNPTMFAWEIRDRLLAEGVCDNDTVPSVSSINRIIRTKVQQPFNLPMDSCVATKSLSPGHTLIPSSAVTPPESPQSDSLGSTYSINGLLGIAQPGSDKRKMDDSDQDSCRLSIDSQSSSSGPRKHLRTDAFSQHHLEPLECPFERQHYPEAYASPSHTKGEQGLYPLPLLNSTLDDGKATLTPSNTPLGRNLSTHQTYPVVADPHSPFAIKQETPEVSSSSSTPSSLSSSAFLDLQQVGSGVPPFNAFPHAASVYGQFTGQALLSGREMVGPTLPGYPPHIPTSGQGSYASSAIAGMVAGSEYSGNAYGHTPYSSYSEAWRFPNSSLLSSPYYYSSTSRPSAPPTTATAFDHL
Sequence of Cytochrome P450 2C9 (P11712 whole entry): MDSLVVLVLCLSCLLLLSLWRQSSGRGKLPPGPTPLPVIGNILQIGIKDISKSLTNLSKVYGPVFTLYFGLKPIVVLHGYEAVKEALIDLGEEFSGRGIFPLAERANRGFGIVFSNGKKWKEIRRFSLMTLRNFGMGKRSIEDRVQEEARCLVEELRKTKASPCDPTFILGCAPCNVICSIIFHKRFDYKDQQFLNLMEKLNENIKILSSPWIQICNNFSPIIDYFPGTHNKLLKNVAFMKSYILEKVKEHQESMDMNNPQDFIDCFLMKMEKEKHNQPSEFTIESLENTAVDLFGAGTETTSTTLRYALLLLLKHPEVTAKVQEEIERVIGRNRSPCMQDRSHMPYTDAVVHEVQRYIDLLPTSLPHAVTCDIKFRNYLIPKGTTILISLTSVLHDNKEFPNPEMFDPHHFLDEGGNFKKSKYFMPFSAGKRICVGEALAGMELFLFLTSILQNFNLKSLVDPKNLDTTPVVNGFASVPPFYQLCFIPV
Sequence of Cytochrome P450 2D6 (P10635 whole entry): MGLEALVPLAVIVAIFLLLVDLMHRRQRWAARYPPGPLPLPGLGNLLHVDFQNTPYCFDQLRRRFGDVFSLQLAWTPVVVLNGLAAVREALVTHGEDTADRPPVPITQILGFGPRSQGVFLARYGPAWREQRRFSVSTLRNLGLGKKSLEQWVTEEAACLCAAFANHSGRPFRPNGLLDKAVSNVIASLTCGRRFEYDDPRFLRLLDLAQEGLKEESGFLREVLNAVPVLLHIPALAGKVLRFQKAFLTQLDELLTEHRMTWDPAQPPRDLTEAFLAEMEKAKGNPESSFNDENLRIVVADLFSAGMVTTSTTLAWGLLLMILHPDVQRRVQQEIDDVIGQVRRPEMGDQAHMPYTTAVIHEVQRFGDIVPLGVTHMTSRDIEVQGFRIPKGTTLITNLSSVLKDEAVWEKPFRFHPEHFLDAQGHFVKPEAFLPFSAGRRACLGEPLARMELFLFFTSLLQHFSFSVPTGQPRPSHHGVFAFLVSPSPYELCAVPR

Nc1c(-c2cccs2)cnn1-c1nc(-c2ccc(F)cc2)cs1
EC50 [1]: 0.304 µM (active)
AC50 (Cytochrome P450 2C9): 0.158 µM (inconclusive)

Cc1c(C(=O)Nc2ccc3c(c2)OCCO3)cnn1C
EC50 [2]: 3.49 µM (active)

COc1ccc2c3c([nH]c2c1)[C@@H](CO)N(C(=O)Nc1cccc(F)c1)CC31CCN(S(=O)(=O)c2cccc(C)c2)CC1
AC50 (Paired box protein Pax-8): 6 µM (active)

O=S1(=O)OC(c2ccc(O)cc2)(c2ccc(O)cc2)c2ccccc21 [PHENOLSULFONPHTHALEIN]
AC50 (Cytochrome P450 2C9): 6.31 µM (inconclusive)

Cc1cc(C(=O)COC(=O)C2=COCCO2)c(C)n1-c1cccc(F)c1
EC50 (H4): 0.887 µM (active)

COC(=O)c1nn(-c2ccccc2)c(=O)cc1Oc1ccccc1
AC50 (Cytochrome P450 2C9): 11.2 µM (inconclusive)

COc1ccccc1C1NC(=O)CCC1[N+](=O)[O-] (configuration not stated)
EC50 [2]: > 195 µM (not active)

COc1c(OC(C)=O)ccc(/C=C/c2ccc3cccc(OC)c3n2)c1[N+](=O)[O-]
CC50 [3]: > 50 µM (active)

Cc1cc(C(C)(C)C)ccc1OCC(=O)N/N=C\c1c(C)n(C)n(-c2ccccc2)c1=O
EC50 [2]: > 195 µM (not active)

CC(C)OC(=O)C(C)Oc1ccc(C(=O)NCCc2ccccc2)cc1 (configuration not stated)
IC50 (cells): 10.3 µM (active)

Cn1c(CCN2CCCC2)nc2cc(NS(=O)(=O)c3ccccc3)ccc21
AC50 (Paired box protein Pax-8): 6.61 µM (active)

COc1cccc(-c2cncnc2NCc2cnc(C)cn2)c1
AC50 (Cytochrome P450 2D6): 15.8 µM (inconclusive)

O=C(c1ccncc1)N1CCC2(CCN(Cc3ccccc3)CC2)CC1
AC50 (Cytochrome P450 2C19): inconclusive
AC50 (Cytochrome P450 2D6): 12.6 µM (inconclusive)

O=S(=O)(c1ccccc1F)N1CC[C@@H]2[C@H](CO)Nc3ccc(C4=CCCCC4)cc3[C@@H]21
AC50 (Paired box protein Pax-8): 28.2 µM (active)

CC1Cc2ccccc2N1C(=O)COC(=O)c1ccc(S(=O)(=O)N(C)C)cc1 (configuration not stated)
EC50 [2]: > 195 µM (not active)

CCNC(=O)COC(=O)c1cc(-c2ccc(OC)cc2)nc2ccccc12
AC50 (Cytochrome P450 2C9): 2.51 µM (inconclusive)

CC1=CCC2C(=O)N(c3ccc(C)c(Br)c3)C(=O)C2C1 (configuration not stated)
EC50 [2]: > 195 µM (not active)

COCCCNCC(=O)c1c(N)n(Cc2ccccc2)c(=O)n(C)c1=O
AC50 (Cytochrome P450 2C19; read-out: AC50): 35.5 µM (inconclusive)
AC50 (Cytochrome P450 2D6): 14.1 µM (inconclusive)

C=CCn1c(COc2ccccc2)nnc1SCC(=O)N/N=C/c1ccc(C)cc1
AC50 (Cytochrome P450 2C19; read-out: AC50): 15.8 µM (inconclusive)
AC50 (Cytochrome P450 2D6): 39.8 µM (inconclusive)

CCC1(C)Cc2c(sc3nnn(CC(=O)Nc4ccc(C)cc4)c(=O)c23)CO1 (configuration not stated)
AC50 (Cytochrome P450 2D6): 22.4 µM (inconclusive)

CCOc1nc(C)ccc1-c1noc(-c2cccnc2)n1
EC50 [2]: > 195 µM (not active)

CCn1c2ccccc2c2cc(NC(=O)c3ccco3)ccc21
CC50 [3]: 16.2 µM (active)

COc1ccc(O)c(/C=N/NC(=O)c2ccc(N3CCCC3=O)cc2)c1
EC50 [4]: > 160 µM (inactive)
EC50 [5]: 14.8 µM (active)
EC50 [6]: 16.3 µM (active)
EC50 [7]: 12.5 µM (active)
AC50 (Paired box protein Pax-8): < 0.26 µM (active)

CCCCCCC/C=C\CCCCCCCCC(=O)O
AC50 (Cytochrome P450 2C19; read-out: AC50): 39.8 µM (inconclusive)
AC50 (Cytochrome P450 2C9): 39.8 µM (inconclusive)

N#C/C(=C(\O)Nc1ccccc1)c1nc2ccccc2[nH]1
IC50 (cells): 2.43 µM (active)

CSCCC(=O)N1CCCC(CNC(=O)c2ccc(-c3ccccc3)cc2)C1 (configuration not stated)
IC50 (cells): 11.6 µM (active)

Cc1cc(Br)c2[nH]cc(CCNC(=O)c3ccco3)c2c1
EC50 [2]: > 195 µM (not active)

CCC(C)NC(=O)C1(C)CCC(=O)N1Cc1ccccc1OC (configuration not stated)
EC50 [2]: > 195 µM (not active)

O=C(/C=C/c1ccc(N2CCCCC2)c([N+](=O)[O-])c1)c1ccc(S(=O)(=O)N2CCCC2)cc1
EC50 [8]: 4.4 µM (active)
EC50 [9]: 3.42 µM (active)

CCCOc1ccc2c3c(c(=O)oc2c1)CCCC3
CC50 [3]: > 50 µM (active)

Cc1ccc(S(=O)(=O)N2CCC(C(=O)OCc3ccccc3)CC2)cc1C
IC50 (cells): 18.6 µM (active)

CCSc1nnc(-c2ccccc2NC(C)=O)c(O)n1
AC50 (Cytochrome P450 2C19): inconclusive
AC50 (Cytochrome P450 2C9): 31.6 µM (inconclusive)

Cc1ccc(S(=O)(=O)N(CC(=O)Nc2ccc(Cl)c([N+](=O)[O-])c2)C2CCCCC2)cc1
EC50 [10]: 3.08 µM (active)
EC50 [8]: 16.2 µM (active)
EC50 [11]: > 60 µM (not active)
EC50 [9]: 19 µM (active)

O=C1CC(N2CC=C(c3ccc(F)cc3)CC2)C(=O)N1c1ccc(F)cc1 (configuration not stated)
EC50 [2]: > 195 µM (not active)

CCSc1nc2c(c(-c3ccc(C)o3)c1C#N)CCCC2
CC50 [3]: 37.5 µM (active)

CC(C)OC(=O)c1cc2ccccc2oc1=O
AC50 (Cytochrome P450 2C9): 10 µM (inconclusive)

CC1CCCN(C/C=C/c2ccccc2[N+](=O)[O-])C1 (configuration not stated)
AC50 (Cytochrome P450 2C9): 0.2 µM (inconclusive)

Cc1nn(-c2nc3ccccc3s2)c(N)c1Sc1ccc(F)cc1
EC50 [8]: 15.5 µM (active)
EC50 [9]: 19.6 µM (active)

O=C(CNC(=S)N(CCCN1CCOCC1)Cc1cccs1)NCc1ccccc1Cl
EC50 [2]: > 195 µM (not active)

Cc1ccccc1-c1cncnc1N(C)Cc1ccco1
AC50 (Cytochrome P450 2D6): 20 µM (inconclusive)

CCOC(=O)c1cnc2ccc(C(=O)OC)cc2c1Nc1ccc(C(=O)O)cc1
AC50 (Paired box protein Pax-8): 66.4 µM (active)

O=S(=O)(/C=C/c1ccccc1)N1CCC(c2nc(O)c3nnn(Cc4ccccc4)c3n2)CC1
CC50 [3]: 27.7 µM (active)

O=C(OCc1cc(=O)n2cc(Br)ccc2n1)C1COc2ccccc2O1 (configuration not stated)
EC50 [2]: > 195 µM (not active)

CC1CCC(NC(=O)c2ccc3c(c2)S(=O)(=O)c2ccccc2C3=O)CC1 (configuration not stated)
CC50 [3]: > 50 µM (active)

COc1ccc(Oc2ncc3ncc(=O)n(Cc4cccs4)c3n2)cc1
AC50 (Cytochrome P450 2C19; read-out: AC50): 25.1 µM (inconclusive)
AC50 (Cytochrome P450 2D6): 39.8 µM (inconclusive)

N=C(CN1CCCCC1)NS(=O)(=O)c1cc(Cl)cc(Cl)c1
IC50 [12]: > 47.1 µM (inactive)
EC50 [13]: > 53 µM (inactive)

CCOC(=O)C[C@@H](C(=O)OCC)[C@@H]1CCCCC1=O
AC50 (Cytochrome P450 2D6): 6.31 µM (inconclusive)

C[C@@H]1CN([C@@H](C)CO)C(=O)Cc2cc(NC(=O)Nc3ccc(C(F)(F)F)cc3)ccc2O[C@H]1CN(C)Cc1ccc(Cl)c(Cl)c1
AC50 (Paired box protein Pax-8): 11.1 µM (active)

COc1ccc(-c2nc(CSCC(=O)NCCC3=CCCCC3)c(C)o2)cc1OC
CC50 [3]: > 50 µM (active)

NC(=O)c1c(NC(=O)c2ccccc2F)sc2c1CCCC2
EC50 [4]: 25.1 µM (active)

Cc1ccc(OC(=O)c2cccc([N+](=O)[O-])c2)c(-n2nc3ccccc3n2)c1
EC50 [1]: 0.588 µM (active)

O=C(OCn1nnc2ccccc2c1=O)c1cccs1
IC50 (cells): 15.6 µM (active)

COc1cc(C(=O)OC2C[C@H]3CC[C@@H](C2)N3C)ccc1O (some centres not stated)
AC50 (Cytochrome P450 2D6): 7.94 µM (inconclusive)

CC(=O)N(/N=C/c1cccc(C)c1)c1nc(-c2ccc(Br)cc2)cs1
AC50 (Cytochrome P450 2C19; read-out: AC50): 0.0708 µM (inconclusive)
AC50 (Cytochrome P450 2C9): 1.12 µM (inconclusive)
